Reference: ChEMBL document CHEMBL1142424, “Octanorcucurbitane and cucurbitane triterpenoids from the tubers of Hemsleya endecaphylla with HIV-1 inhibitory activity” (J Nat Prod, 2008)
In brackets after ≈: the same amount, converted by molar mass.

Key:
[1] = Selectivity index, ratio of CC50 for human C8166 cells to EC50 for HIV1; format: functional
[2] = Cytotoxicity against human C8166 cells by MTT method; format: cell-based
[3] = tested on: Human immunodeficiency virus 1; experiment: Antiviral activity against HIV1 in C8166 cells after 72 hrs; format: functional, organism-based; conditions: Human immunodeficiency virus 1, C8166, 72 h

SMILES | Ratio CC50/EC50 [1] | CC50 [2] | EC50 [3]
CC(C)(O)/C=C/C[C@@](C)(O)[C@H]1[C@H](O)C[C@@]2(C)[C@@H]3CC=C4[C@@H](C[C@H](O)C(=O)C4(C)C)[C@]3(C)C(=O)C[C@]12C | 7.7 | 121 µg/mL (≈ 241 µM) | 15.8 µg/mL (≈ 31.4 µM)
CC(=O)OC(C)(C)CCC(=O)[C@](C)(O)[C@H]1[C@H](O)C[C@@]2(C)[C@@H]3CC=C4[C@@H](C=C(O)C(=O)C4(C)C)[C@]3(C)C(=O)C[C@]12C | 9.2 | 21.6 µg/mL (≈ 38.7 µM) | 2.4 µg/mL (≈ 4.3 µM)
CC(C)(O)CCC(=O)[C@@](C)(O)[C@H]1[C@H](O)C[C@@]2(C)[C@@H]3CC=C4[C@@H](C[C@H](O)C(=O)C4(C)C)[C@]3(C)C(=O)C[C@]12C | 50 | 6.5 µg/mL (≈ 12.5 µM) | 0.13 µg/mL (≈ 0.251 µM)
CC(=O)OC(C)(C)CCC(=O)[C@](C)(O)[C@H]1[C@H](O)C[C@@]2(C)[C@@H]3CC=C4[C@@H](C[C@H](O)C(=O)C4(C)C)[C@]3(C)C(=O)C[C@]12C [23,24-DIHYDROCUCURBITACIN B] | 6.1 | 25.5 µg/mL (≈ 45.5 µM) | 4.2 µg/mL (≈ 7.49 µM)
CC(=O)OC(C)(C)/C=C/C(=O)[C@](C)(O)[C@H]1[C@H](O)C[C@@]2(C)[C@@H]3CC=C4[C@@H](C[C@H](O)C(=O)C4(C)C)[C@]3(C)C(=O)C[C@]12C [CUCURBITACIN B] |  | 1.5 µg/mL (≈ 2.68 µM) | 
CC(=O)OC(C)(C)/C=C/C(=O)[C@](C)(O)[C@H]1[C@H](O)C[C@@]2(C)[C@@H]3CC=C4[C@H](C[C@H](O)C(=O)C4(C)C)[C@]3(C)C(=O)C[C@]12C [CUCURBITACIN B] | 16.7 |  | 0.09 µg/mL (≈ 0.161 µM)
CC(C)(O)/C=C/C(=O)[C@](C)(O)[C@H]1[C@H](O)C[C@@]2(C)[C@@H]3CC=C4[C@@H](C=C(O)C(=O)C4(C)C)[C@]3(C)C(=O)C[C@]12C [CUCURBITACIN I] | 20.6 | 14.4 µg/mL (≈ 28 µM) | 0.7 µg/mL (≈ 1.36 µM)
CC1(C)C(=O)[C@@H](O)C[C@@H]2C1=CC[C@@H]1[C@@]2(C)C(=O)C[C@]2(C)CC(=O)C[C@@]12C [ENDECAPHYLLACIN A] | >6.3 | > 200 µg/mL | 31.6 µg/mL (≈ 88.2 µM)
CC1(C)C(=O)C(O)=C[C@@H]2C1=CC[C@@H]1[C@@]2(C)C(=O)C[C@]2(C)CC(=O)C[C@@]12C [ENDECAPHYLLACIN B] | 5 | 62 µg/mL (≈ 174 µM) | 12 µg/mL (≈ 33.7 µM)
Cc1cn([C@H]2C[C@H](N=[N+]=[N-])[C@@H](CO)O2)c(=O)[nH]c1=O [ZIDOVUDINE] | >50000 | > 200 µg/mL | 0.0034 µg/mL (≈ 0.0127 µM)
